Experimental data from US20250145665A1, “MACROCYCLIC PEPTIDES USEFUL AS MODULATORS OF TNF ALPHA” (Bristol-Myers Squibb Company, priority 2023, published 2025).
Positions of bridges follow the written chain, without caps; N, C: chain ends. Non-standard residues stand in square brackets, D forms with d. Residues, ends and D or L forms follow the SMILES beside them. Bip(4'-COOH) = N[C@@H](Cc1ccc(-c2ccc(C(=O)O)cc2)cc1)C(=O)O; Bip(4'-NHAc) = CC(=O)Nc1ccc(-c2ccc(C[C@H](N)C(=O)O)cc2)cc1; Ala(morpholin-4-yl) = N[C@@H](CN1CCOCC1)C(=O)O; Bip = N[C@@H](Cc1ccc(-c2ccccc2)cc1)C(=O)O; 3Pal = N[C@@H](Cc1cccnc1)C(=O)O; Sar = CNCC(=O)O

Molecular target: TNFα (Homo sapiens, UniProt P01375)
Sequence (P01375 77-233 limits assumed): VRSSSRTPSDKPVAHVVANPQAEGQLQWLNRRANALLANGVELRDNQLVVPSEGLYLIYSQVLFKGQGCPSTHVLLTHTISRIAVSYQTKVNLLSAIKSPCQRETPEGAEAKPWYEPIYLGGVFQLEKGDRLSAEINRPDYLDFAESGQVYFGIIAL
Assay: TNF-Induced HEK-Blue Assay
Type: cell-based
Details: HEK-Blue-CD40L cells, NF-kB-driven secreted alkaline phosphatase reporter; TNFα 0.5 ng/ml; 18 h; read-out: TNF induced HEK-Blue assay IC50 value

Compound | IC50
CC(C)C[C@@H]1NC(=O)[C@H](Cc2ccc(O)cc2)NC(=O)[C@H](C(C)C)NC(=O)[C@@H]2CCCN2C(=O)[C@H](Cc2cccnc2)NC(=O)[C@@H](CCCNC(=N)N)NC(=O)[C@H](CC(=O)O)NC(=O)[C@@H]2CCCN2C(=O)CN(C)C(=O)[C@H](Cc2ccc(-c3ccccc3)cc2)NC(=O)[C@H](Cc2ccc(-c3ccccc3)cc2)NC(=O)[C@H](CN2CCOCC2)NC(=O)CSC[C@@H](C(=O)NCC(N)=O)NC1=O [Example 119] ({CH2CO}-[Ala(morpholin-4-yl)][Bip][Bip][Sar]PD[dR][3Pal]PVYLCG-NH2; thioether N-13) | 200 to 2000 nM
CC(C)C[C@@H]1NC(=O)[C@H](CCCNC(=N)N)NC(=O)[C@H](C(C)C)NC(=O)[C@@H]2CCCN2C(=O)[C@H](C(C)C)NC(=O)[C@H](CCCNC(=N)N)NC(=O)[C@H](CC(=O)O)NC(=O)[C@@H]2CCCN2C(=O)CN(C)C(=O)[C@H](Cc2ccc(-c3ccccc3)cc2)NC(=O)[C@H](Cc2ccc(-c3ccc(C(=O)O)cc3)cc2)NC(=O)[C@H](CN2CCOCC2)NC(=O)CSC[C@@H](C(=O)NCC(N)=O)NC1=O [Example 120] ({CH2CO}-[Ala(morpholin-4-yl)][Bip(4'-COOH)][Bip][Sar]PDRVPVRLCG-NH2; thioether N-13) | 50 to 200 nM
CC(C)C[C@@H]1NC(=O)[C@H](Cc2ccc(O)cc2)NC(=O)[C@H](C(C)C)NC(=O)[C@@H]2CCCN2C(=O)[C@H](C(C)C)NC(=O)[C@H](CCCNC(=N)N)NC(=O)[C@H](CC(=O)O)NC(=O)[C@H](Cc2ccc(O)cc2)NC(=O)CN(C)C(=O)[C@H](Cc2ccc(-c3ccccc3)cc2)NC(=O)[C@H](Cc2ccc(-c3ccc(C(=O)O)cc3)cc2)NC(=O)[C@H](CN2CCOCC2)NC(=O)CSC[C@@H](C(=O)NCC(N)=O)NC1=O [Example 121] ({CH2CO}-[Ala(morpholin-4-yl)][Bip(4'-COOH)][Bip][Sar]YDRVPVYLCG-NH2; thioether N-13) | 200 to 2000 nM
CC(C)C[C@@H]1NC(=O)[C@H](CCCNC(=N)N)NC(=O)[C@H](C(C)C)NC(=O)[C@@H]2CCCN2C(=O)[C@H](Cc2ccc(O)cc2)NC(=O)[C@H](CCCNC(=N)N)NC(=O)[C@H](CC(=O)O)NC(=O)[C@@H]2CCCN2C(=O)CN(C)C(=O)[C@H](Cc2ccc(-c3ccccc3)cc2)NC(=O)[C@H](Cc2ccc(-c3ccc(C(=O)O)cc3)cc2)NC(=O)[C@H](CN2CCOCC2)NC(=O)CSC[C@@H](C(=O)NCC(N)=O)NC1=O [Example 122] ({CH2CO}-[Ala(morpholin-4-yl)][Bip(4'-COOH)][Bip][Sar]PDRYPVRLCG-NH2; thioether N-13) | 200 to 2000 nM
CC(C)C[C@@H]1NC(=O)[C@H](CCCNC(=N)N)NC(=O)[C@H](C(C)C)NC(=O)[C@@H]2CCCN2C(=O)[C@H](C(C)C)NC(=O)[C@@H](CCCNC(=N)N)NC(=O)[C@H](CC(=O)O)NC(=O)[C@@H]2CCCN2C(=O)CN(C)C(=O)[C@H](Cc2ccc(-c3ccccc3)cc2)NC(=O)[C@H](Cc2ccc(-c3ccc(C(=O)O)cc3)cc2)NC(=O)[C@H](CN2CCOCC2)NC(=O)CSC[C@@H](C(=O)NCC(N)=O)NC1=O [Example 123] ({CH2CO}-[Ala(morpholin-4-yl)][Bip(4'-COOH)][Bip][Sar]PD[dR]VPVRLCG-NH2; thioether N-13) | 50 to 200 nM
CC(C)C[C@@H]1NC(=O)[C@H](Cc2ccc(O)cc2)NC(=O)[C@H](C(C)C)NC(=O)[C@@H]2CCCN2C(=O)[C@H](C(C)C)NC(=O)[C@H](CCCNC(=N)N)NC(=O)[C@H](CC(=O)O)NC(=O)[C@@H]2CCCN2C(=O)CN(C)C(=O)[C@H](Cc2ccc(-c3ccccc3)cc2)NC(=O)[C@H](Cc2ccc(-c3ccc(C(=O)O)cc3)cc2)NC(=O)[C@H](CN2CCOCC2)NC(=O)CSC[C@@H](C(=O)NCC(N)=O)NC1=O [Example 124] ({CH2CO}-[Ala(morpholin-4-yl)][Bip(4'-COOH)][Bip][Sar]PDRVPVYLCG-NH2; thioether N-13) | 50 to 200 nM
CC(=O)Nc1ccc(-c2ccc(C[C@@H]3NC(=O)[C@H](Cc4ccc(-c5ccccc5)cc4)NC(=O)[C@H](CN4CCOCC4)NC(=O)CSC[C@@H](C(=O)NCC(N)=O)NC(=O)[C@H](CC(C)C)NC(=O)[C@H](Cc4ccc(O)cc4)NC(=O)[C@H](C(C)C)NC(=O)[C@@H]4CCCN4C(=O)[C@H](C(C)C)NC(=O)[C@@H](CCCNC(=N)N)NC(=O)[C@H](CC(=O)O)NC(=O)[C@@H]4CCCN4C(=O)CN(C)C3=O)cc2)cc1 [Example 125] ({CH2CO}-[Ala(morpholin-4-yl)][Bip][Bip(4'-NHAc)][Sar]PD[dR]VPVYLCG-NH2; thioether N-13) | < 50 nM
CC(=O)Nc1ccc(-c2ccc(C[C@@H]3NC(=O)[C@H](Cc4ccc(-c5ccccc5)cc4)NC(=O)[C@H](CN4CCOCC4)NC(=O)CSC[C@@H](C(=O)NCC(N)=O)NC(=O)[C@H](CC(C)C)NC(=O)[C@H](CCCNC(=N)N)NC(=O)[C@H](C(C)C)NC(=O)[C@@H]4CCCN4C(=O)[C@H](C(C)C)NC(=O)[C@H](CCCNC(=N)N)NC(=O)[C@H](CC(=O)O)NC(=O)[C@@H]4CCCN4C(=O)CN(C)C3=O)cc2)cc1 [Example 126] ({CH2CO}-[Ala(morpholin-4-yl)][Bip][Bip(4'-NHAc)][Sar]PDRVPVRLCG-NH2; thioether N-13) | 50 to 200 nM
CC(=O)Nc1ccc(-c2ccc(C[C@@H]3NC(=O)[C@H](Cc4ccc(-c5ccccc5)cc4)NC(=O)[C@H](CN4CCOCC4)NC(=O)CSC[C@@H](C(=O)NCC(N)=O)NC(=O)[C@H](CC(C)C)NC(=O)[C@H](CCCNC(=N)N)NC(=O)[C@H](C(C)C)NC(=O)[C@@H]4CCCN4C(=O)[C@H](Cc4ccc(O)cc4)NC(=O)[C@H](CCCNC(=N)N)NC(=O)[C@H](CC(=O)O)NC(=O)[C@@H]4CCCN4C(=O)CN(C)C3=O)cc2)cc1 [Example 127] ({CH2CO}-[Ala(morpholin-4-yl)][Bip][Bip(4'-NHAc)][Sar]PDRYPVRLCG-NH2; thioether N-13) | 50 to 200 nM
CC(=O)Nc1ccc(-c2ccc(C[C@@H]3NC(=O)[C@H](Cc4ccc(-c5ccccc5)cc4)NC(=O)[C@H](CN4CCOCC4)NC(=O)CSC[C@@H](C(=O)NCC(N)=O)NC(=O)[C@H](CC(C)C)NC(=O)[C@H](CCCNC(=N)N)NC(=O)[C@H](C(C)C)NC(=O)[C@@H]4CCCN4C(=O)[C@H](C(C)C)NC(=O)[C@@H](CCCNC(=N)N)NC(=O)[C@H](CC(=O)O)NC(=O)[C@@H]4CCCN4C(=O)CN(C)C3=O)cc2)cc1 [Example 128] ({CH2CO}-[Ala(morpholin-4-yl)][Bip][Bip(4'-NHAc)][Sar]PD[dR]VPVRLCG-NH2; thioether N-13) | < 50 nM
CC(C)C[C@@H]1NC(=O)[C@H](Cc2ccc(O)cc2)NC(=O)[C@H](C(C)C)NC(=O)[C@@H]2CCCN2C(=O)[C@H](C(C)C)NC(=O)[C@@H](CCCNC(=N)N)NC(=O)[C@H](CC(=O)O)NC(=O)[C@@H]2CCCN2C(=O)CNC(=O)[C@H](Cc2ccc(-c3ccccc3)cc2)NC(=O)[C@H](Cc2ccc(-c3ccccc3)cc2)NC(=O)[C@H](CN2CCOCC2)NC(=O)CSC[C@@H](C(=O)NCC(N)=O)NC1=O [Example 129] ({CH2CO}-[Ala(morpholin-4-yl)][Bip][Bip]GPD[dR]VPVYLCG-NH2; thioether N-13) | 200 to 2000 nM
CC(C)C[C@@H]1NC(=O)[C@H](CCCNC(=N)N)NC(=O)[C@H](C(C)C)NC(=O)[C@@H]2CCCN2C(=O)[C@H](C(C)C)NC(=O)[C@@H](CCCNC(=N)N)NC(=O)[C@H](CC(=O)O)NC(=O)[C@@H]2CCCN2C(=O)CNC(=O)[C@H](Cc2ccc(-c3ccccc3)cc2)NC(=O)[C@H](Cc2ccc(-c3ccccc3)cc2)NC(=O)[C@H](CN2CCOCC2)NC(=O)CSC[C@@H](C(=O)NCC(N)=O)NC1=O [Example 130] ({CH2CO}-[Ala(morpholin-4-yl)][Bip][Bip]GPD[dR]VPVRLCG-NH2; thioether N-13) | 200 to 2000 nM
CC(C)C[C@@H]1NC(=O)[C@H](Cc2ccc(O)cc2)NC(=O)[C@H](C(C)C)NC(=O)[C@@H]2CCCN2C(=O)[C@H](C(C)C)NC(=O)[C@@H](CCCNC(=N)N)NC(=O)[C@H](CC(=O)O)NC(=O)[C@H](Cc2ccc(O)cc2)NC(=O)CNC(=O)[C@H](Cc2ccc(-c3ccccc3)cc2)NC(=O)[C@H](Cc2ccc(-c3ccccc3)cc2)NC(=O)[C@H](CN2CCOCC2)NC(=O)CSC[C@@H](C(=O)NCC(N)=O)NC1=O [Example 131] ({CH2CO}-[Ala(morpholin-4-yl)][Bip][Bip]GYD[dR]VPVYLCG-NH2; thioether N-13) | 50 to 200 nM
CC(C)C[C@@H]1NC(=O)[C@H](CCCNC(=N)N)NC(=O)[C@H](C(C)C)NC(=O)[C@@H]2CCCN2C(=O)[C@H](C(C)C)NC(=O)[C@@H](CCCNC(=N)N)NC(=O)[C@H](CC(=O)O)NC(=O)[C@H](Cc2ccc(O)cc2)NC(=O)CNC(=O)[C@H](Cc2ccc(-c3ccccc3)cc2)NC(=O)[C@H](Cc2ccc(-c3ccccc3)cc2)NC(=O)[C@H](CN2CCOCC2)NC(=O)CSC[C@@H](C(=O)NCC(N)=O)NC1=O [Example 132] ({CH2CO}-[Ala(morpholin-4-yl)][Bip][Bip]GYD[dR]VPVRLCG-NH2; thioether N-13) | 50 to 200 nM
CC(C)C[C@@H]1NC(=O)[C@H](Cc2ccc(O)cc2)NC(=O)[C@H](C(C)C)NC(=O)[C@@H]2CCCN2C(=O)[C@H](C(C)C)NC(=O)[C@H](CCCNC(=N)N)NC(=O)[C@H](CC(N)=O)NC(=O)[C@@H]2CCCN2C(=O)CN(C)C(=O)[C@H](Cc2ccc(-c3ccccc3)cc2)NC(=O)[C@H](Cc2ccc(-c3ccccc3)cc2)NC(=O)[C@H](CN2CCOCC2)NC(=O)CSC[C@@H](C(=O)NCC(N)=O)NC1=O [Example 133] ({CH2CO}-[Ala(morpholin-4-yl)][Bip][Bip][Sar]PNRVPVYLCG-NH2; thioether N-13) | 200 to 2000 nM
CC(C)C[C@@H]1NC(=O)[C@H](Cc2ccc(O)cc2)NC(=O)[C@H](C(C)C)NC(=O)CN(C)C(=O)[C@H](C(C)C)NC(=O)[C@@H](CCCNC(=N)N)NC(=O)[C@H](CC(=O)O)NC(=O)[C@H](Cc2ccc(O)cc2)NC(=O)CN(C)C(=O)[C@H](Cc2ccc(-c3ccccc3)cc2)NC(=O)[C@H](Cc2ccc(-c3ccccc3)cc2)NC(=O)[C@H](CN2CCOCC2)NC(=O)CSC[C@@H](C(=O)NCC(N)=O)NC1=O [Example 134] ({CH2CO}-[Ala(morpholin-4-yl)][Bip][Bip][Sar]YD[dR]V[Sar]VYLCG-NH2; thioether N-13) | 50 to 200 nM
